From patent publication EP0758233B1, “PDE IV INHIBITORS FOR TREATING MULTIPLE SCLEROSIS” (SCHERING AKTIENGESELLSCHAFT, priority 1994, dated 1995)

Key:
[1] = system: Experimental Allergic Encephalomyelitis (EAE); test: Prevention of Experimental Allergic Encephalomyelitis (EAE) in immunized marmosets; type: in vivo, Callithrix jacchus (common marmoset); conditions: treatment stopped on day 60 following immunization; two marmosets; day counted from withdrawal
[2] = system: adoptive cell transfer (tEAE); test: EAE after adoptive cell transfer (tEAE) in Lewis rats; type: in vivo; conditions: treatment after onset of symptoms; n = 5
Experimental: The results of our in vivo findings prompted us to perform treatment experiments in EAE after active immunization (aEAE) and adoptive cell transfer (tEAE) in Lewis rats. […] In clinically manifest EAE, treatment was started within 6 hours of the onset of symptoms. […] In tEAE similar effects were observed. […] Treatment after onset of symptoms also lead to a marked reduction in maximum severity (treated group: MMS 0.7 ± 0.10, n = 5; vehicle treated matched controls 2.45 ± 0.56, n = 5, p 0.01).

active EAE = test: Treatment of active (chronic) EAE in a marmoset; type: in vivo, Callithrix jacchus (common marmoset); conditions: one marmoset with chronic EAE; escalating doses of Rolipram in DMSO
[3] = system: encephalitogenic CD4+ MBP-specific rat TCL (L1402); test: TNF/LT production by rat MBP-specific T-cell line, cytotoxicity bioassay; type: cell-based; conditions: stereospecificity, (-)- versus (+)-enantiomer
From the text: To assess the ability of rolipram alone or in various combinations as described to modify autoimmune processes, we investigated its influence on TNF production in vitro by MBP-specific T-cell lines from MS patients and Lewis rats. MBP is a major candidate antigen in MS, and T-cell-mediated immunity is of crucial importance in its pathogenesis. Similar to EAE, MBP-specific T-cells in humans are often cytotoxic, of Th1 type secreting interferon (IFN)-gamma and TNF/LT, and recognize epitopes that are also encephalitogenic in EAE.
Similar results were found using an encephalitogenic CD4+ MBP-specific rat TCL (L1402). […] Previous investigations had shown that inhibition of cAMP PDE by rolipram is stereospecific.
TNF and LT may both be produced by autoactive T-cells. CD4+ cells have been reported to be the major source of TFN in autoimmune insulitis of NOD mice. The cytokine bioassay for TNF/LT detection employed here is sensitive to TNF and LT, but is 200 times more sensitive to the former.

Structure (SMILES)	clinical signs of EAE following withdrawal of Rolipram [1] [days]	maximum severity, MMS [2]	MRI improvement following initiating Rolipram treatment (active EAE) [days]	marked improvement (physical symptoms) after initiating treatment (active EAE) [days]	times more effective than the (+)-enantiomer (inhibition of TNF/LT production) [3] [times]
COc1ccc(C2CNC(=O)C2)cc1OC1CCCC1 (centres unmarked) [Rolipram, 4-[(3-cyclopentyloxy)-4-methoxyphenyl)-2-pyrrolidinone]	17	0.7 ± 0.10	14	10	
COc1ccc(C2CNC(=O)C2)cc1OC1CCCC1 (single isomer, unassigned; (-)) [(-)-rolipram]					55
